Two compounds from patent US5665886A, “Salts of substituted nitrogenous heteroaromatic compounds, a process for their preparation and pharmaceutical compositions containing them” (Sanofi, priority 1994, dated 1997) can be followed below.

The test system of the test is substance P receptor NK1. Nature of the test: Binding (inhibition of fixation) of [125I]BH-SP to NK1 receptors in rat cortex, guinea pig ileum and human lymphoblastic cells. As for the experimental part:
The affinity of compounds for tachykinin receptors has been evaluated in vitro by a number of biochemical tests using radioligands: 1) Bonding of [^125 I]BH-SP (substance P labelled with iodine-125 using a Bolton-Hunter reagent) to NK1 receptors in the rat cortex, the guinea pig ileum and human lymphoblastic cells. The tests were carried out as described in X. Emonds et al., (Eur. J. Pharmacol., 1993, 250, 403-413).

As to `CC(C)Oc1cccc(CC(=O)N(C)CC(CC[n+]2ccc(Cc3ccccc3)cc2)c2ccc(Cl)c(Cl)c2)c1` (centres unmarked) [Example 2, 4-benzyl-1-[3-(3,4-dichlorophenyl)-4)-4-[N-methyl-(3-iso-propyloxyphenyl)acetylamino]butyl]pyridinium methanesulfonate dihydrate], the “antagonism of substance P receptor NK1” value is “powerful antagonists”.

`CC(C)Oc1cccc(CC(=O)N2CCCC(CC[n+]3ccc(Cc4ccccc4)cc3)(c3ccc(Cl)c(Cl)c3)C2)c1.O.O.[Cl-]` (centres unmarked) [Example 4, 4-benzyl-1-[2-[3-(3,4-dichlorophenyl)-1-[(3-isopropoxyphenyl)-acetyl]piperidin-3-yl]ethyl]pyridinium chloride dihydrate]: the “antagonism of substance P receptor NK1” value was “powerful antagonists”.
